Measured values: patent US9532519B2, “Plant growth regulator and use thereof” (Japan Science and Technology Agency, priority 2006, dated 2017)

How the values were obtained:
Assay type in all cases: in vivo
eustoma = test: Effect on promoting growth of roots of eustoma; conditions: MS culture medium containing 1 mM-GSSG or GSH, grown 1 month, transferred to planter
From the text: In the planter, 2 parts of vermiculite, 1 part of The Kureha Ikubyou Baido soil, and 1 part of vermiculite were layered as a lower layer, a middle layer, and an upper layer, respectively, and the above plants were transferred thereto.

[1] = system: strawberry (breed; Eminent garden series, Yokubari-ichigo kurenai (SUMIKA)); test: Effect of oxidized glutathione on growth of strawberry (number of runners); conditions: GSH-treated zone
Arabidopsis = test: Influence of oxidized glutathione on growth of Arabidopsis; conditions: 5 mM H2O2 solution; 8 weeks after the sowing
Method: Specifically, the plants were cultivated with two or three plants in one pod of approximately 65 in width, 65 in depth, and 50 in height, and an appropriate amount of a treatment solution was supplied. The effect of the treatment was evaluated with respect to the number of rosette leaves, the speed of a growing flower stalk, the number of flowers, and the number of seeds.

Row | SMILES | growth of roots vs plants not treated with GSSG (eustoma) | increase in the number of runners relative to the increase of the GSSG-treated zone [1] | number of runners per one stock vs Cont zone [1] | state of plant (life of plant) (Arabidopsis)
1 | N[C@@H](CCC(=O)N[C@@H](CS)C(=O)NCC(=O)O)C(=O)O [GSH, reduced glutathione] | subdued growth of roots | approximately one third | more number of runners per one stock than a Cont zone | 
2 | OO [H2O2, reference compound] |  |  |  | withering
